Assay results as given in the supplement of paper PMC10307832.

Tests used:
Assay in all cases: relative viability (nuclei count vs DMSO), 5 days (fraction); higher = more cells survive
Ibrutinib + Pictilisib = compound: C=CC(=O)N1CCC[C@@H](n2nc(-c3ccc(Oc4ccccc4)cc3)c3c(N)ncnc32)C1 [Ibrutinib] + CS(=O)(=O)N1CCN(Cc2cc3nc(-c4cccc5[nH]ncc45)nc(N4CCOCC4)c3s2)CC1 [Pictilisib] (partner 1 µM)
Procedure, shortened: (§1)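 Values are medians from duplicate plates. Each reflects relative viability, defined as the nuclei count of treated wells over that of vehicle wells. Lung cancer cell lines in 1536-well plates were pin-tool dosed one day after seeding with one drug alone or with a fixed anchor-drug dose plus five library-drug doses (not always all listed) in √10 steps, then fixed, stained and imaged at 4× after 5 days.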

PAC-1 + Palbociclib = compound: C=CCc1cccc(/C=N/NC(=O)CN2CCN(Cc3ccccc3)CC2)c1O [PAC-1] + CC(=O)c1c(C)c2cnc(Nc3ccc(N4CCNCC4)cn3)nc2n(C2CCCC2)c1=O [Palbociclib] (partner 0.5 µM)
Procedure, shortened: as §1

BMX-IN-1 + Alpelisib = compound: C=CC(=O)Nc1cc(-n2c(=O)ccc3cnc4ccc(-c5ccc(NS(C)(=O)=O)cc5)cc4c32)ccc1C [BMX-IN-1] + Cc1nc(NC(=O)N2CCC[C@H]2C(N)=O)sc1-c1ccnc(C(C)(C)C(F)(F)F)c1 [Alpelisib] (partner 2 µM)
Procedure, shortened: as §1

BMX-IN-1 + OSI-027 = compound: C=CC(=O)Nc1cc(-n2c(=O)ccc3cnc4ccc(-c5ccc(NS(C)(=O)=O)cc5)cc4c32)ccc1C [BMX-IN-1] + COc1cccc2cc(-c3nc([C@H]4CC[C@H](C(=O)O)CC4)n4ncnc(N)c34)[nH]c12 [OSI-027] (partner 0.5 µM)
Procedure, shortened: as §1

Row | Cell Line | relative viability (Ibrutinib + Pictilisib; first compound 0.005 µM) | relative viability (Ibrutinib + Pictilisib; first compound 0.01581 µM) | relative viability (Ibrutinib + Pictilisib; first compound 0.05 µM) | relative viability (Ibrutinib + Pictilisib; first compound 0.1581 µM) | relative viability (Ibrutinib + Pictilisib; first compound 0.5 µM) | relative viability (PAC-1 + Palbociclib; first compound 0.02 µM) | relative viability (PAC-1 + Palbociclib; first compound 0.06325 µM) | relative viability (PAC-1 + Palbociclib; first compound 0.2 µM) | relative viability (PAC-1 + Palbociclib; first compound 2 µM) | relative viability (BMX-IN-1 + Alpelisib; first compound 0.02 µM) | relative viability (BMX-IN-1 + Alpelisib; first compound 0.2 µM) | relative viability (BMX-IN-1 + Alpelisib; first compound 0.6325 µM) | relative viability (BMX-IN-1 + Alpelisib; first compound 2 µM) | relative viability (BMX-IN-1 + OSI-027; first compound 0.02 µM) | relative viability (BMX-IN-1 + OSI-027; first compound 0.2 µM) | relative viability (BMX-IN-1 + OSI-027; first compound 0.6325 µM) | relative viability (BMX-IN-1 + OSI-027; first compound 2 µM)
1 | NCI-H460 | 0.331 | 0.365 | 0.313 | 0.19 | 0.256 | 0.148 | 0.162 | 0.129 | 0.248 | 0.827 | 0.752 | 0.566 | 0.568 | 1.46 | 1.16 | 1.16 | 0.691
2 | NCI-H520 | 0.25 | 0.262 | 0.258 | 0.183 | 0.254 | 0.21 | 0.256 | 0.179 | 0.268 | 1.26 | 0.922 | 0.873 | 0.753 | 0.253 | 0.238 | 0.279 | 0.282
3 | NCI-H647 | 0.28 | 0.418 | 0.357 | 0.323 | – | 0.288 | 0.37 | 0.35 | 0.409 | 1.25 | 1.32 | 1.36 | 0.974 | 0.722 | 0.642 | 0.736 | 0.571
4 | NCI-H650 | – | 0.883 | – | 0.973 | 0.678 | 0.317 | 0.296 | 0.39 | 0.342 | 1.2 | 1.19 | 1.27 | 1.1 | 0.511 | 0.508 | 0.594 | 0.531
5 | NCI-H661 | 0.302 | 0.413 | 0.308 | 0.358 | 0.284 | 0.439 | 0.445 | 0.399 | 0.392 | 0.675 | 0.889 | 0.758 | 0.692 | 0.638 | 0.798 | 0.772 | 0.761
6 | NCI-H727 | 0.253 | 0.471 | 0.246 | 0.298 | 0.343 | 0.516 | 0.597 | 0.681 | 0.714 | 0.499 | 0.671 | 0.766 | 0.578 | 0.846 | 0.597 | 0.648 | 0.612
7 | NCI-H838 | 0.343 | 0.38 | 0.514 | 0.472 | 0.543 | 0.239 | 0.227 | 0.22 | 0.229 | 1.18 | 0.961 | 1.06 | 1.04 | 0.424 | 0.389 | 0.438 | 0.389
8 | NCI-H1355 | – | 0.474 | 0.481 | 0.26 | 0.343 | 0.43 | 0.39 | 0.412 | 0.421 | 0.906 | 0.943 | 0.865 | 0.786 | 0.386 | 0.393 | 0.482 | 0.424
9 | NCI-H1395 | 0.611 | 0.555 | 0.538 | 0.562 | 0.655 | 0.624 | 0.648 | 0.593 | 0.572 | 1.07 | 1.05 | 1.15 | 0.962 | 0.645 | 0.64 | 0.647 | 0.637
10 | NCI-H1437 | 0.346 | 0.413 | 0.428 | 0.359 | 0.443 | 0.298 | 0.35 | 0.355 | 0.307 | 1.26 | 0.953 | 1.1 | 1.05 | 1.05 | 0.912 | 0.916 | 0.845
11 | NCI-H1651 | 0.502 | 0.482 | 0.466 | 0.627 | 0.643 | 0.525 | 0.536 | 0.547 | 0.499 | 1.07 | 1.06 | 0.943 | 0.863 | 0.9 | 0.426 | 0.782 | 0.582
12 | NCI-H1666 | 0.388 | 0.358 | 0.31 | 0.409 | 0.235 | 0.605 | 0.643 | 0.676 | 0.632 | 1.03 | 1.02 | 1.13 | 1.08 | 0.948 | 1.01 | 0.843 | 0.951
13 | NCI-H1734 | 0.354 | 0.446 | 0.43 | 0.491 | 0.388 | 0.307 | 0.328 | 0.297 | 0.355 | 0.668 | 0.717 | 0.783 | 0.652 | 0.709 | 0.64 | 0.632 | 0.621
14 | NCI-H1755 | 0.418 | 0.421 | 0.424 | 0.389 | 0.362 | 0.473 | 0.444 | 0.453 | 0.468 | 1.01 | 1.23 | 1.06 | 0.965 | 0.685 | 0.787 | 0.765 | 0.721
15 | NCI-H1792 | 0.286 | 0.25 | 0.23 | 0.295 | 0.242 | 0.692 | 0.627 | 0.64 | 0.627 | 0.585 | 0.473 | 0.579 | 0.684 | – | 0.823 | 0.817 | 0.775
16 | NCI-H1793 | – | 0.466 | 0.323 | 0.357 | 0.274 | 0.307 | 0.324 | 0.271 | 0.302 | 1.14 | 0.873 | 0.665 | 0.563 | 0.271 | 0.281 | 0.324 | 0.332
17 | NCI-H1915 | – | 0.978 | 0.891 | 0.609 | 1.02 | 0.502 | 0.535 | 0.49 | 0.518 | 1.08 | 1.03 | 1.04 | 1.13 | 0.647 | 0.714 | 0.805 | 0.619
18 | NCI-H1944 | 0.305 | 0.334 | 0.308 | 0.317 | 0.316 | 0.272 | 0.347 | 0.374 | 0.371 | 0.858 | 0.931 | 0.921 | 0.798 | 0.417 | 0.405 | 0.502 | 0.452
